{"source": "patent US20200383985A1", "about": "“Inhibitors of Protease Activated Receptor-2” (Endosome Therapeutics, Inc., priority 2017, published 2020)", "key": {"PKC and ERK activity": {"tested_on": "PKC and ERK activity", "assay": "FRET assays of compartmentalized PKC and ERK in DRG neurons", "type": "cell-based, rat", "details": "I-343 10 μM, SCH530348 100 nM", "description": "To determine whether trypsin causes PAR2-dependent activation of PKC and ERK, which respectively mediate initial and persistent trypsin-induced hyperexcitability of nociceptors, genetically-encoded Förster Resonance Energy Transfer (FRET) biosensors were expressed in neurons. […] Trypsin (10 or 100 nM) activated PKC at the plasma membrane but not in the cytosol (FIG. 4E-G), and activated ERK in the cytosol and nucleus (FIG. 4H-J). The PAR2 antagonist I-343 (10 μM) inhibited trypsin-induced activation of PKC and ERK, whereas the PAR1 antagonist SCH530348 (100 nM) had no effect (FIG. 4F, I). At the end of experiments, neurons were challenged with the positive controls phorbol 12,13-dibutyrate (PDBu) for EKAR biosensors or PDBu plus phosphatase inhibitor mixture-2 for CKAR biosensors, to ensure that the response of the biosensor was not saturated.\nDRG were collected from C57BL/6 mice and Sprague-Dawley rats (all levels). DRG were incubated with collagenase IV (2 mg/ml) and dispase II (1 mg/ml) for 30 min (mice) and 45 min (rats) at 37° C. DRG were dispersed by trituration with a fire-polished Pasteur pipette. Dissociated neurons were transfected with mPAR2-GFP (1 μg), the FRET biosensors CytoEKAR, NucEKAR, pmCKAR or CytoCKAR (all […]), or with the BRET biosensors PAR2-RLuc8 (125 ng) and βARR2-FYP (475 ng) using the Lonza 4D-Nucleofector X unit according to the manufacturer's instructions. Neurons were plated on laminin- (0.004 mg/ml) and poly-L-Lysine- (0.1 mg/ml) coated glass coverslips for confocal microscopy, on ViewPlate-96 plates (PerkinElmer) for FRET assays, or on CulturPlates (PerkinElmer) for BRET assays. Neurons were maintained in Dulbecco's modified Eagle medium (DMEM) containing 10% fetal bovine serum (FBS), antibiotic-antimitotic, and N1 supplement for 48 h before study.\nRat DRG neurons expressing FRET biosensors were serum-restricted (0.5% FBS overnight), and equilibrated in HBSS-HEPES (10 mM HEPES, pH 7.4, 30 min, 37° C.). FRET was analyzed using an Operetta CLS High-Content Imaging System (PerkinElmer) or an INCell Analyzer 2000 G E Healthcare Life Sciences). For CFP/YFP emission ratio analysis, cells were sequentially excited using a CFP filter (410-430 nm) with emission measured using YFP (520-560 nm) and CFP (460-500 nm) filters. Cells were imaged at 1 or 2 min intervals. Baseline was measured, neurons were challenged with trypsin (10 or 100 nM) or vehicle, and responses recorded for a further 30 min. Neurons were then challenged with phorbol 12,13-dibutyrate (PDBu, 200 nM, 10 min) for EKAR biosensors or PDBu (200 nM) and phosphatase inhibitor cocktail-2 (SigmaAldrich, 10 min) for CKAR biosensors. Data were analyzed using Harmony 4.1 or Image J 1.51 software. Images taken were aligned, cells were selected based on diameter, and fluorescence intensity was calculated for both FRET and CFP channels. Background intensity was subtracted and the FRET ratio was determined as the change in the FRET/donor (EKAR) or donor/FRET (CKAR) emission ratio relative to the baseline for each cell (F/Fo). Cells with >5% changes in F/F0 after PDBu stimulation were selected for analysis. Neurons were incubated with I-343 (10 μM), SCH530348 (100 nM) or vehicle (30 min, 37° C. preincubation and inclusion throughout)."}, "PKC and cAMP": {"tested_on": "PKC and cAMP", "assay": "FRET assays of PKC and cAMP in HEK293 cells", "type": "cell-based", "details": "HEK293 cells", "description": "I-343, but not SCH530348, inhibited trypsin stimulation of PKC and cAMP, which thus depend on PAR2 (FIGS. 19G and H). […] The sustained plasma membrane cAMP response to trypsin support the existence of mechanisms that allow persistent PAR2 signaling, which warrant further investigation.\nHEK293 cells were cultured in DMEM supplemented with 10% (v/v) FBS (5% CO2, 37° C.). When necessary serum restriction was achieved by replacing culture medium with DMEM containing 0.5% FBS overnight. Cells were transiently transfected using polyethylenimine (PEI) (1:6 DNA:PEI).\nHEK293 cells were transiently transfected in 10 cm dishes (˜50% confluency) with Flag-PAR2-HA (2.5 μg) and FRET biosensors CytoEKAR or NucEKAR (2.5 μg) (Jensen, D. D. et al., Sci Transl Med. 2017, 9(392), eaal3447; Thomsen, A. R. B., et al., Cell 2016, 166(4): 907-919). In experiments examining the role of dynamin, cells were transfected with FLAG-PAR2-HA (1.25 μg), FRET biosensor (1.25 μg) and either DynWT-HA, DynK44E-HA or pcDNA3.1 (2.5 μg). At 24 h after transfection, cells were seeded on ViewPlate-96 well plates (PerkinElmer). FRET was assessed 72 h post-transfection, following overnight serum restriction. Cells were equilibrated in HBSS-HEPES (30 min, 37° C.). FRET was measured using a PHERAstar FSX Microplate Reader (BMG LabTech). For CFP/YFP emission ratio analysis, cells were sequentially excited using a CFP filter (425/10 nm) with emission measured using YFP (550/50 nm) and CFP (490/20 nm) filters. FRET was measured before and after stimulation with trypsin (10 nM), NE (100 nM), CS (100 nM), phorbol 12,13-dibutyrate, PDBu (positive control, 1 μM), or vehicle. FRET ratios (donor/acceptor intensity for EKAR, or acceptor/donor intensity for CKAR and Epac) were calculated and corrected to baseline and vehicle treatments to determine ligand-induced FRET (ΔFRET). Treatment effects were determined by comparison of area under the curve values. Signalling inhibitors were dissolved in HBSS-HEPES. PS2 and PS2 inact were dissolved in HBSS-HEPES+1% DMSO. […]"}}}
{"smiles": "CCOC(=O)N[C@@H]1CC[C@@H]2[C@@H](C1)C[C@H]1C(=O)O[C@H](C)[C@H]1[C@H]2/C=C/c1ccc(-c2cccc(F)c2)cn1", "note": "[SCH530348]", "values": [{"measurement": "trypsin-induced activation of PKC and ERK", "setting": "PKC and ERK activity", "value": "no effect"}, {"measurement": "trypsin stimulation of PKC and cAMP", "setting": "PKC and cAMP", "value": "not"}]}
